Assay results reported in patent US9809623B2, “α4β7 peptide monomer and dimer antagonists” (Protagonist Therapeutics, Inc., priority 2014, dated 2017).
Numbered stars: 1 amine (or outer) side, 2 acyl side, 3 side chain; on linkers, the order of the positions; unused ones are H or OH. Bridge positions count the residues as written; N and C are the ends. Square brackets hold non-standard residues; d marks the D form. Peptide text beside a SMILES is read from it. I, II: the chains in the order shown. Phe(3,4-Cl2) = N[C@@H](Cc1ccc(Cl)c(Cl)c1)C(=O)O; Phe(2,4-Cl2) = N[C@@H](Cc1ccc(Cl)cc1Cl)C(=O)O; 1Nal = N[C@@H](Cc1cccc2ccccc12)C(=O)O; 2Nal = N[C@@H](Cc1ccc2ccccc2c1)C(=O)O; d1Nal = N[C@H](Cc1cccc2ccccc12)C(=O)O; d2Nal = N[C@H](Cc1ccc2ccccc2c1)C(=O)O; Diglycolyl = O=C(COCC(=O)[*:2])[*:1]; NMeR = CN[C@@H](CCCNC(=N)N)C(=O)O; hPhe = N[C@@H](CCc1ccccc1)C(=O)O; Tic = O=C(O)[C@@H]1Cc2ccccc2CN1; Pen = CC(C)(S)[C@H](N)C(=O)O; dNMeK = CN[C@H](CCCCN)C(=O)O

What was measured:
[1] = molecular target: T1, rh integrin α4β7 (Homo sapiens, UniProt P13612+P26010); assay: α4β7-MAdCAM Competition ELISA; assay type: binding; settings: Table 3-B, Potency (α4β7); range classes; read-out: α4β7 ELISA IC50
T1 construct: purchased R&D Systems 5397-A30
Method: A nickel coated plate (Pierce #15442) was coated with rh integrin α4β7 (R&D Systems #5397-A30) at 800 ng/well and incubated at room temperature with shaking for 1 hr. The solution was then removed by shaking and blocked with assay buffer (50 mM Tris-HCl pH7.6, 150 mM NaCl, 1 mM MnCl2 or MgCl2, 0.05% Tween-20 and 0.5% BSA) at 250 ul/well. The plate was then incubated at room temperature for 1 hr. Each well was washed 3 times with wash buffer (50 mM Tris-HCl pH7.6, 100 mM NaCl, 1 mM MnCl2 or MgCl2, 0.05% Tween-20). To each well was added 25 ul of a serial dilution (3-fold dilutions in assay buffer) of peptide starting at 20 μM. 25 ul of recombinant human MAdCAM-1 (R&D Systems #6056-MC) was then added to each well at a fixed concentration 20 nM. The final starting peptide concentration was 10 μM, and the final MAdCAM-1 concentration was 10 nM. The plates were then incubated at room temperature for 1 hr to reach binding equilibrium. The wells were then washed three times with wash buffer. 50 ul of mouse anti-human IgG1-HRP (Invitrogen # A10648) diluted in 1:2000 in assay buffer was then added to each well. The wells were incubated at room temperature for 45 min with shaking. The wells were then washed 3 times with wash buffer. 100 ul of 3,3′,5,5′-Tetramethylbenzidine (TMB) were then added to each well and closely observe during development time. The reaction was stopped with 2N H2SO4 and absorbance was read at 450 nm.
TMB is a chromogenic substrate suitable for use in ELISA procedures, which utilize horseradish peroxidase conjugates. This substrate produces a soluble end product that is blue in color and can be read spectrophotometrically at 370 or 655 nm. The reaction maybe stopped with 2 M H2S04, resulting in a yellow solution that is read at 450 nm. Each tablet contains 1 mg of TMB substrate. To prepare TMB Substrate Solution, dissolve one 3,3′,5,5′-tetramethylbenzidine tablet in 1 ml of DMSO and add to 9 ml of 0.05 M Phosphate-Citrate Buffer, pH 5.0. Add 2 μl of fresh 30% hydrogen peroxide (Product No. H 1009) per 10 ml of substrate buffer solution, immediately prior to use.

[2] = molecular target: α4β7 (Homo sapiens, UniProt P13612+P26010); assay: α4β7-MAdCAM Cell Adhesion Assay (RPMI 8866 human cells); assay type: cell-based; parameters: host or cells: RPMI 8866 human B lymphoblastoid cells; settings: Table 3-B, Potency (α4β7); range classes; read-out: α4β7 cell (Hu) IC50
Procedure, shortened: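 Washed RPMI 8866 cells (200,000/well) in DMEM with 0.1% BSA, 10 mM HEPES pH 7, 1 mM MnCl2 adhered to rh MAdCAM-1/Fc-coated wells with serially diluted peptides, 30-45 min at 37 °C. After three washes, bound cells quantified by MTT, A570, cell-free background subtracted for dose response.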

α4β7, sequence (P13612 34-1032): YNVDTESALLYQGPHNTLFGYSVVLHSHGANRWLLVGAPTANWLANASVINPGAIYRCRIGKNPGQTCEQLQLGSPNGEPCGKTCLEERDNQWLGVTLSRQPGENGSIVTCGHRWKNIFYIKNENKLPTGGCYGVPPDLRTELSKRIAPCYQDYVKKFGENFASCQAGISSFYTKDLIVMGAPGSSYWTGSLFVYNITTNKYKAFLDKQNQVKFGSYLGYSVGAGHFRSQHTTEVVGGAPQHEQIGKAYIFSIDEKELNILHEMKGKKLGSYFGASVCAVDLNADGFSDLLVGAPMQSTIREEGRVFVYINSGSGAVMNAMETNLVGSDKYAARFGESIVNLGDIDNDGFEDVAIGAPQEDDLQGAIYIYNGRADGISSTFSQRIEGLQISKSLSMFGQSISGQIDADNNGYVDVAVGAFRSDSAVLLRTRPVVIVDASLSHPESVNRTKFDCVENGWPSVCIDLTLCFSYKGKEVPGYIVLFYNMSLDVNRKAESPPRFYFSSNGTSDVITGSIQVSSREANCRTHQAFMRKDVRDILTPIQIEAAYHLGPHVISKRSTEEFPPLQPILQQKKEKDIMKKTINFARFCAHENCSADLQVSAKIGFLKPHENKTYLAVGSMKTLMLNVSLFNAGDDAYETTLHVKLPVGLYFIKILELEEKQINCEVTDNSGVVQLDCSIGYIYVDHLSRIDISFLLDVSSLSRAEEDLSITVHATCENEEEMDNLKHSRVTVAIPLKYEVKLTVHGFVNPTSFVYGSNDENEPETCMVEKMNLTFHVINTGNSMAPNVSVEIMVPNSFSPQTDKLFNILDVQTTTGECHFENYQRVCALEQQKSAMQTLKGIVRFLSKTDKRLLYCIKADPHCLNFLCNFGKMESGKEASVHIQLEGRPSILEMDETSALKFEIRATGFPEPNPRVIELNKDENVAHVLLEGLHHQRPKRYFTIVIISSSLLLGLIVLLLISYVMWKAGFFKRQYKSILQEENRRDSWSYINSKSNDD
α4β7, sequence (P26010 20-798): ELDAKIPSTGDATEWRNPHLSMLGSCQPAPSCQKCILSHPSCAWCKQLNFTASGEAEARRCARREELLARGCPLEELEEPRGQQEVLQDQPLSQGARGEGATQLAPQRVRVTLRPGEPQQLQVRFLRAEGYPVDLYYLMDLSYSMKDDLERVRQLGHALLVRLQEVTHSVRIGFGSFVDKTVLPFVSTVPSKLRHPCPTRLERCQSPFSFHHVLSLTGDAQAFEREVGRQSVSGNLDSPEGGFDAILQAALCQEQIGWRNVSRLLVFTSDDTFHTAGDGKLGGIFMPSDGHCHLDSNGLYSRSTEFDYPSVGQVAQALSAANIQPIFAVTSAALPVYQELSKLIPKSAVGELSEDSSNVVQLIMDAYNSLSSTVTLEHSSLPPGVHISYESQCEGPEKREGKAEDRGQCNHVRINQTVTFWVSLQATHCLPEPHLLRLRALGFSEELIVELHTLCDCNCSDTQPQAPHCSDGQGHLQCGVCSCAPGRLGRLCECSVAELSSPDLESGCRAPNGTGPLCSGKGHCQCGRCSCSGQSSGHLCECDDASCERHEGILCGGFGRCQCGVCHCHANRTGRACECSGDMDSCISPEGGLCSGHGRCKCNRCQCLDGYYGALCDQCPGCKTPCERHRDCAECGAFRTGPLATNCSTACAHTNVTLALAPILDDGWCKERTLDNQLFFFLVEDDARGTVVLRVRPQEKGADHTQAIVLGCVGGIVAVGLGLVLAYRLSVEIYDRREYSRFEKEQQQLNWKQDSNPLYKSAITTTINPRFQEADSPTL
T1 sequence (P13612 34-977 limits assumed): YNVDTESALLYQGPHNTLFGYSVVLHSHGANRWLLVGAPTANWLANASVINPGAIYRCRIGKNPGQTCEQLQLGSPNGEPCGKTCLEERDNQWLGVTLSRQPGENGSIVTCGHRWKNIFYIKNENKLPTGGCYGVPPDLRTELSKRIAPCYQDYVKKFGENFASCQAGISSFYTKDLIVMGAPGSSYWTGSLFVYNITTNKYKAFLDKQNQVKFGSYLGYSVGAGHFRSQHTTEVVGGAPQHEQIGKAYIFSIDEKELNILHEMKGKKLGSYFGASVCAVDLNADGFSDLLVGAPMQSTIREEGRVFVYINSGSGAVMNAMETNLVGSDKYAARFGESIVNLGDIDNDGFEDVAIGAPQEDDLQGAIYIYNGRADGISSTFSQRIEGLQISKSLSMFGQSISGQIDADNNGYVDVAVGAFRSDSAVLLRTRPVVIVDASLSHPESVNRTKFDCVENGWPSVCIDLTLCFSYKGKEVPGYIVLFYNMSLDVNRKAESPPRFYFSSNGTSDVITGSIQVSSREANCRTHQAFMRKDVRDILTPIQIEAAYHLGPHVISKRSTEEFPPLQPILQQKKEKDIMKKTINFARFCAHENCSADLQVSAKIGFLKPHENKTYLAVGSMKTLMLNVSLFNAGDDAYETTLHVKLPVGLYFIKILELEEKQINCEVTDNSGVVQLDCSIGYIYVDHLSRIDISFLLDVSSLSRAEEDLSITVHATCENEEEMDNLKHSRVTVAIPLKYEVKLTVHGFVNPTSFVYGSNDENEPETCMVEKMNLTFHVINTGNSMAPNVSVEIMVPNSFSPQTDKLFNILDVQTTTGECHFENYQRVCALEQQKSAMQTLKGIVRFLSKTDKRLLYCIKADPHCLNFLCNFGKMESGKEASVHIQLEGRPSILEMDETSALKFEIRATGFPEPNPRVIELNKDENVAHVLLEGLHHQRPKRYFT
T1 sequence (P26010 20-723 limits assumed): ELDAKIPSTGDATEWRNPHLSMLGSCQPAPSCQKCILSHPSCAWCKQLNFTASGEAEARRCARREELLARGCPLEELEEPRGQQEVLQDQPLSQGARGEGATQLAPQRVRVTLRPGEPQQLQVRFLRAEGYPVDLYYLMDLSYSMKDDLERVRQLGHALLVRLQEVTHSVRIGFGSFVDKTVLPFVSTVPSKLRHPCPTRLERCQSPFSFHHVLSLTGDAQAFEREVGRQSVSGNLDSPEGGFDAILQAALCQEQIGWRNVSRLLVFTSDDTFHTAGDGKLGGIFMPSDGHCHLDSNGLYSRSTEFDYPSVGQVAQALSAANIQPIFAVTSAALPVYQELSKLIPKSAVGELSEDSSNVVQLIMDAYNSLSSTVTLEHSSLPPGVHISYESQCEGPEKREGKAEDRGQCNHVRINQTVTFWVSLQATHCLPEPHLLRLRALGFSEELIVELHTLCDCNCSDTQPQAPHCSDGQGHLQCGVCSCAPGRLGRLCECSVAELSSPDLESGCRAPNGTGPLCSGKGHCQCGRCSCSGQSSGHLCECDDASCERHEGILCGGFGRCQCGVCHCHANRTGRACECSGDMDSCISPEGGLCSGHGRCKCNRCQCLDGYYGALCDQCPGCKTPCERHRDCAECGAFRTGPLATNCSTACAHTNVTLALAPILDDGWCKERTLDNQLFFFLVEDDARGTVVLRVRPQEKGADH

SMILES	IC50 [1]	IC50 [2]
CC(=O)N[C@@H]1C(=O)N(C)[C@@H](CCCNC(=N)N)C(=O)N[C@@H](CO)C(=O)N[C@@H](CC(=O)O)C(=O)N[C@@H]([C@@H](C)O)C(=O)N[C@@H](CC(C)C)C(=O)N[C@H](C(=O)N[C@@H](Cc2cccc3ccccc23)C(=O)N[C@H](CCC(=O)O)C(=O)N(C)[C@H](CCCCN)C(N)=O)C(C)(C)SSC1(C)C [compound 12] (Ac-[Pen][NMeR]SDTL[Pen][1Nal][dE][dNMeK]-NH2; disulfide 1-7)	25 to 50 nM	–
CC(=O)N[C@@H]1C(=O)N(C)[C@@H](CCCNC(=N)N)C(=O)N[C@@H](CO)C(=O)N[C@@H](CC(=O)O)C(=O)N[C@@H]([C@@H](C)O)C(=O)N[C@@H](CC(C)C)C(=O)N[C@H](C(=O)N[C@@H](Cc2ccc3ccccc3c2)C(=O)N[C@H](CCC(=O)O)C(=O)N(C)[C@H](CCCCN)C(N)=O)C(C)(C)SSC1(C)C [compound 13] (Ac-[Pen][NMeR]SDTL[Pen][2Nal][dE][dNMeK]-NH2; disulfide 1-7)	10 to 25 nM	100 to 500 nM
CC(=O)N[C@@H]1C(=O)N(C)[C@@H](CCCNC(=N)N)C(=O)N[C@@H](CO)C(=O)N[C@@H](CC(=O)O)C(=O)N[C@@H]([C@@H](C)O)C(=O)N[C@@H](CC(C)C)C(=O)N[C@H](C(=O)N[C@@H](Cc2ccc3ccccc3c2)C(=O)N[C@H](CCCCN)C(N)=O)C(C)(C)SSC1(C)C [compound 88] (Ac-[Pen][NMeR]SDTL[Pen][2Nal][dK]-NH2; disulfide 1-7)	10 to 25 nM	–
COC(=O)C[C@@H]1NC(=O)[C@H](CO)NC(=O)[C@H](CCCNC(=N)N)N(C)C(=O)[C@@H](NC(C)=O)C(C)(C)SSC(C)(C)[C@@H](C(=O)N[C@@H](Cc2c[nH]c3ccccc23)C(=O)N[C@@H](CCC(=O)O)C(=O)N[C@H](CCCCNC(=O)COCC(=O)NCCCC[C@@H](NC(=O)[C@H](CCC(=O)O)NC(=O)[C@H](Cc2c[nH]c3ccccc23)NC(=O)[C@H]2NC(=O)[C@H](CC(C)C)NC(=O)[C@H]([C@@H](C)O)NC(=O)[C@H](CC(=O)OC)NC(=O)[C@H](CO)NC(=O)[C@H](CCCNC(=N)N)N(C)C(=O)[C@@H](NC(C)=O)C(C)(C)SSC2(C)C)C(N)=O)C(N)=O)NC(=O)[C@H](CC(C)C)NC(=O)[C@H]([C@@H](C)O)NC1=O [compound 73] (I: Ac-[Pen][NMeR]SD(OMe)TL[Pen]WE[dK]-NH2 / II: Ac-[Pen][NMeR]SD(OMe)TL[Pen]WE[dK]-NH2; disulfide I:1-I:7, II:1-II:7; linker I:10-II:10 via Diglycolyl)	< 10 nM	< 10 nM
CC(=O)N[C@@H]1C(=O)N(C)[C@@H](CCCNC(=N)N)C(=O)N[C@@H](CO)C(=O)N[C@@H](CC(=O)O)C(=O)N[C@@H]([C@@H](C)O)C(=O)N[C@@H](CC(C)C)C(=O)N[C@H](C(=O)N[C@@H](Cc2ccc(Cl)cc2Cl)C(=O)N[C@@H](CCC(=O)O)C(=O)N[C@H](CCCCN)C(N)=O)C(C)(C)SSC1(C)C [compound 16] (Ac-[Pen][NMeR]SDTL[Pen][Phe(2,4-Cl2)]E[dK]-NH2; disulfide 1-7)	10 to 25 nM	–
CC(=O)N[C@@H]1C(=O)N(C)[C@@H](CCCNC(=N)N)C(=O)N[C@@H](CO)C(=O)N[C@@H](CC(=O)O)C(=O)N[C@@H]([C@@H](C)O)C(=O)N[C@@H](CC(C)C)C(=O)N[C@H](C(=O)N[C@H](Cc2ccc3ccccc3c2)C(=O)N[C@@H](CCC(=O)O)C(=O)N[C@H](CCCCN)C(N)=O)C(C)(C)SSC1(C)C [compound 11] (Ac-[Pen][NMeR]SDTL[Pen][d2Nal]E[dK]-NH2; disulfide 1-7)	25 to 50 nM	–
CC(=O)N[C@@H]1C(=O)N(C)[C@@H](CCCNC(=N)N)C(=O)N[C@@H](CO)C(=O)N[C@@H](CC(=O)O)C(=O)N[C@@H]([C@@H](C)O)C(=O)N[C@@H](CC(C)C)C(=O)N[C@H](C(=O)N[C@@H](Cc2cccc3ccccc23)C(=O)N[C@H](CCC(=O)O)C(=O)N[C@H](CCCCN)C(N)=O)C(C)(C)SSC1(C)C [compound 8] (Ac-[Pen][NMeR]SDTL[Pen][1Nal][dE][dK]-NH2; disulfide 1-7)	25 to 50 nM	–
CC(=O)N[C@@H]1C(=O)N(C)[C@@H](CCCNC(=N)N)C(=O)N[C@@H](CO)C(=O)N[C@@H](CC(=O)O)C(=O)N[C@@H]([C@@H](C)O)C(=O)N[C@@H](CC(C)C)C(=O)N[C@H](C(=O)N[C@@H](CCc2ccccc2)C(=O)N[C@H](CCC(=O)O)C(=O)N[C@H](CCCCN)C(N)=O)C(C)(C)SSC1(C)C [compound 14] (Ac-[Pen][NMeR]SDTL[Pen][hPhe][dE][dK]-NH2; disulfide 1-7)	25 to 50 nM	–
CC(=O)N[C@@H]1C(=O)N(C)[C@@H](CCCNC(=N)N)C(=O)N[C@@H](CO)C(=O)N[C@@H](CC(=O)O)C(=O)N[C@@H]([C@@H](C)O)C(=O)N[C@@H](CC(C)C)C(=O)N[C@H](C(=O)N[C@@H](CCc2ccccc2)C(=O)N[C@@H](CCC(=O)O)C(=O)N[C@H](CCCCN)C(N)=O)C(C)(C)SSC1(C)C [compound 19] (Ac-[Pen][NMeR]SDTL[Pen][hPhe]E[dK]-NH2; disulfide 1-7)	10 to 25 nM	–
CC(=O)N[C@@H]1C(=O)N(C)[C@@H](CCCNC(=N)N)C(=O)N[C@@H](CO)C(=O)N[C@@H](CC(=O)O)C(=O)N[C@@H]([C@@H](C)O)C(=O)N[C@@H](CC(C)C)C(=O)N[C@H](C(=O)N2Cc3ccccc3C[C@H]2C(=O)N[C@H](CCC(=O)O)C(=O)N[C@H](CCCCN)C(N)=O)CSSC1(C)C [compound 89] (Ac-[Pen][NMeR]SDTLC[Tic][dE][dK]-NH2; disulfide 1-7)	25 to 50 nM	–
CC(=O)N[C@@H]1C(=O)N(C)[C@@H](CCCNC(=N)N)C(=O)N[C@@H](CO)C(=O)N[C@@H](CC(=O)O)C(=O)N[C@@H]([C@@H](C)O)C(=O)N[C@@H](CC(C)C)C(=O)N[C@H](C(=O)N[C@@H](Cc2ccc(Cl)c(Cl)c2)C(=O)N[C@@H](CCC(=O)O)C(=O)N[C@H](CCCCN)C(N)=O)C(C)(C)SSC1(C)C [compound 17] (Ac-[Pen][NMeR]SDTL[Pen][Phe(3,4-Cl2)]E[dK]-NH2; disulfide 1-7)	10 to 25 nM	–
CC(=O)N[C@@H]1C(=O)N(C)[C@@H](CCCNC(=N)N)C(=O)N[C@@H](CO)C(=O)N[C@@H](CC(=O)O)C(=O)N[C@@H]([C@@H](C)O)C(=O)N[C@@H](CC(C)C)C(=O)N[C@H](C(=O)N[C@@H](Cc2ccc3ccccc3c2)C(=O)N[C@@H](CCC(=O)O)C(=O)N(C)[C@H](CCCCN)C(N)=O)C(C)(C)SSC1(C)C [compound 15] (Ac-[Pen][NMeR]SDTL[Pen][2Nal]E[dNMeK]-NH2; disulfide 1-7)	< 10 nM	–
CC(=O)N[C@@H]1C(=O)N(C)[C@@H](CCCNC(=N)N)C(=O)N[C@@H](CO)C(=O)N[C@@H](CC(=O)O)C(=O)N[C@@H]([C@@H](C)O)C(=O)N[C@@H](CC(C)C)C(=O)N[C@H](C(=O)N[C@@H](CCc2ccccc2)C(=O)N[C@H](CCC(=O)O)C(=O)N[C@H](CCCCNC(=O)COCC(=O)NCCCC[C@@H](NC(=O)[C@@H](CCC(=O)O)NC(=O)[C@H](CCc2ccccc2)NC(=O)[C@H]2NC(=O)[C@H](CC(C)C)NC(=O)[C@H]([C@@H](C)O)NC(=O)[C@H](CC(=O)O)NC(=O)[C@H](CO)NC(=O)[C@H](CCCNC(=N)N)N(C)C(=O)[C@@H](NC(C)=O)C(C)(C)SSC2(C)C)C(N)=O)C(N)=O)C(C)(C)SSC1(C)C [compound 40] (I: Ac-[Pen][NMeR]SDTL[Pen][hPhe][dE][dK]-NH2 / II: Ac-[Pen][NMeR]SDTL[Pen][hPhe][dE][dK]-NH2; disulfide I:1-I:7, II:1-II:7; linker I:10-II:10 via Diglycolyl)	< 10 nM	100 to 500 nM
CC(=O)N[C@@H]1C(=O)N(C)[C@@H](CCCNC(=N)N)C(=O)N[C@@H](CO)C(=O)N[C@@H](CC(=O)O)C(=O)N[C@@H]([C@@H](C)O)C(=O)N[C@@H](CC(C)C)C(=O)N[C@H](C(=O)N[C@@H](Cc2ccc3ccccc3c2)C(=O)N[C@H](CCC(=O)O)C(=O)N[C@H](CCCCN)C(N)=O)C(C)(C)SSC1(C)C [compound 9] (Ac-[Pen][NMeR]SDTL[Pen][2Nal][dE][dK]-NH2; disulfide 1-7)	10 to 25 nM	100 to 500 nM
CC(=O)N[C@@H]1C(=O)N(C)[C@@H](CCCNC(=N)N)C(=O)N[C@@H](CO)C(=O)N[C@@H](CC(=O)O)C(=O)N[C@@H]([C@@H](C)O)C(=O)N[C@@H](CC(C)C)C(=O)N[C@H](C(=O)N[C@H](Cc2cccc3ccccc23)C(=O)N[C@@H](CCC(=O)O)C(=O)N[C@H](CCCCN)C(N)=O)C(C)(C)SSC1(C)C [compound 10] (Ac-[Pen][NMeR]SDTL[Pen][d1Nal]E[dK]-NH2; disulfide 1-7)	10 to 25 nM	–
